From patent publication US6897228B2, “Pyridoxine and pyridoxal analogues: new uses” (Medicure International Inc., priority 2000, dated 2005)
Marks after values point to notes of the source that are not given here.

How the values were obtained:
[1] = test system: Male Wistar rats, embolic focal cerebral ischemia (MCA); assay: Neuroprotection in rat embolic stroke model; type: in vivo; conditions: for infarction volume: 48 h, mean±SEM; for Hemorrhage rate / Mortality rate (pre-mature death) / Seizure occurrence: n=10; for Neurological deficits (modified Bederson score): median (25-75th percentile)
From the text: Male Wistar rats, weighting 300-350 g, were purchased from Charles River, St. Constant, Canada. Embolic focal cerebral ischemia was induced by embolizing a preformed clot into the middle cerebral artery (MCA). (For details of the procedure see Wang C X, Yang Y, Shuaib A. A focal embolic model of cerebral ischemia in rats. Brain Res. Protoc. 7:115-120, 2001. Wang C, Yang T and Shuaib A: An improved version of embolic model of brain ischemic injury in the rat. J. Neurosci. Meth. 109:147-151, 2001).
The study consisted of four groups (n=10). Animals were randomly assigned to one of the four groups. Treatments were started at 1 h after MCA occlusion. […] In the control group, 0.5% DMSO (1.5 ml) was infused.
The procedure for assessment of infarct volume were detailed previously (Bederson J B, Pitts L H, Tsuji M, Nishimura M C, Davis R L, Bartkowski H. Rat middle cerebral artery occlusion: evaluation of the model and development of a neurologic examination. Stroke 17:472-476, 1986. Yang, Y., Shuaib, A., and Li, Q. Quantification of infarct size on focal cerebral ischemia model of rats using a simple and economical method. J. Neurosci. Meth., 84:9-16, 1998). Briefly, at 48 h after ischemia the anesthetized animal was sacrificed by decapitation and the brain removed. The volume of infarction was measured in the brain sections stained with 2,3,5-triphenyltetrazolium chloride (TTC) solution with following formula, corrected infarct size=the volume of the left hemisphere−(the volume of the right hemisphere-measured infarct volume). The percentage of infarct volume was obtained by calculating the portion of the corrected infarct volume and dividing it by the total volume of the left hemisphere. Brain swelling was determined using a formula: swelling (edema)=(volume of the right hemisphere[…])/volume of the left hemisphere. Hemorrhage transformation was identified from the TTC stain brain sections.
Neurological deficits and seizure activities were recorded at 2, 24 and 48 hours after embolization. Neurological deficits were determined using a modified Bederson's scoring system (Bederson J B, Pitts L H, Tsuji M, Nishimura M C, Davis R L, Bartkowski H. Rat middle cerebral artery occlusion: evaluation of the model and development of a neurologic examination. Stroke (17:472-476, 1986). 0: no observable deficit; 1: forelimb flexion; 2: forelimb flexion plus decreased resistance to lateral push; 3: unidirectional circling; 4: unidirectional circling plus decreased level of consciousness. Seizure activity, hemorrhage and mortality were also recorded. […]. Results are shown in Table 25-1
The differences of infarction volume were analyzed with one way ANOVA followed by Dunnett's test. Neurological deficit scores were reported as medians and interquartile ranges, considering 25-75th percentile. The neurological scores were analyzed with Kruskal-Wallis test when more than two groups, and analyzed with Mann-Whitney test when comparison was done in two groups. The rates of mortality and seizure occurrence following different treatments were compared with Chi-square test. Differences were considered significant when p<0.05.

[2] = test system: platelets (platelet rich plasma); assay: Inhibition of platelet aggregation (aggregometer, platelet rich plasma); type: cell-based; conditions: for Extent of aggregation as a percentage amplitude, 1 μg/mL collagen: agonist 1 μg/mL collagen; for Extent of aggregation as a percentage amplitude, 4 μM ADP: agonist 4 μM ADP; for Extent of aggregation as a percentage amplitude, 5 μg/mL collagen: agonist 5 μg/mL collagen; for Extent of aggregation as a percentage amplitude, 12 μM TRAP: agonist 12 μM TRAP
Experimental: Platelet rich plasma (PRP) was obtained by drawing whole blood into sodium citrate tubes (3.2%) and centrifuging at 700 rpm for 10 minutes. Platelet poor plasma (PPP) was obtained by centrifuging the remainder of the sample ntil the platelets were removed (3200 rpm for 10 minutes). The PRP was adjusted to a count of 280×10^9/L using a mixture of PRP and PPP. The incubation mixture consisted of 200 μL of platelets and 25 μL of the appropriate compound (18 mM stock for a final concentration of 2 mM and 4.5 mM stock for a final concentration of 500 μM), rendering an approximate final platelet count in the incubation mixture of 250×10^9/L. After incubation (30 minutes at room temperature, the cuvettes were incubated for 3 minutes at 37° C., transferred to the mixing wells and after the baselines transmittances were measured in an aggregometer (Chrono-Log 4), 25 μL of agonist was added to give a final concentration of 4 μM ADP, 1 μg/mL collagen, 5 μg/mL collagen or 12 μM thrombin receptor activating peptide (TRAP). Final transmittances were then measured in the aggregometer (lower percent transmittance represents higher aggregation). […] Table 24-1 gives the results of the extent of aggregation for several compounds as percentage amplitude read directly from the aggregometer.

Question: Which results are given for `Cc1ncc(CNc2ccc(-c3ccc(C(=N)N)cc3)cc2)c(CO)c1O` [Compound XL]?
Answer: infarction volume ([1]; 10 mg/kg at 1 h after embolization, control 40±2.6%): 30.5±4.8%; Hemorrhage rate ([1]; 10 mg/kg group, control 1 rat): 2 rats; Mortality rate (pre-mature death) ([1]; 10 mg/kg group, control 1 rat): 1; Seizure occurrence ([1]; 10 mg/kg group, control 2 rats): 3 rats; Ischemic brain edema ([1]; 10 mg/kg, control 5.7±1.3): 6.8±1.9; Neurological deficits (modified Bederson score) ([1]; 10 mg, 2 h after injury): 3 (3-3); Neurological deficits (modified Bederson score) ([1]; 10 mg, 24 h after injury): 2 (2-3)*; Neurological deficits (modified Bederson score) ([1]; 10 mg, 48 h after injury): 2 (2-3)*; Ischemic brain edema ([1]; 20 mg/kg): 5.9±1.3; infarction volume ([1]; 20 mg/kg at 1 h after embolization): 26.5±4.4%; Hemorrhage rate ([1]; 20 mg/kg group): 1 rat; Mortality rate (pre-mature death) ([1]; 20 mg/kg group): 1; Seizure occurrence ([1]; 20 mg/kg group): 2 rats; Neurological deficits (modified Bederson score) ([1]; 20 mg, 2 h after injury): 3 (3-3); Neurological deficits (modified Bederson score) ([1]; 20 mg, 24 h after injury): 2 (2-3)*; Neurological deficits (modified Bederson score) ([1]; 20 mg, 48 h after injury): 2 (2-3)*; Ischemic brain edema ([1]; 40 mg/kg): 7.9±2.1; infarction volume ([1]; 40 mg/kg at 1 h after embolization): 25.9±3.4%; Hemorrhage rate ([1]; 40 mg/kg group): 2 rats; Seizure occurrence ([1]; 40 mg/kg group): 2 rats; Neurological deficits (modified Bederson score) ([1]; 40 mg, 2 h after injury): 3 (3-3); Neurological deficits (modified Bederson score) ([1]; 40 mg, 24 h after injury): 2 (2-3)*; Neurological deficits (modified Bederson score) ([1]; 40 mg, 48 h after injury): 2.5 (2-2)*; Extent of aggregation as a percentage amplitude, 1 μg/mL collagen ([2]; compound 500 μM): 4%; Extent of aggregation as a percentage amplitude, 4 μM ADP ([2]; compound 500 μM): 9%; Extent of aggregation as a percentage amplitude, 5 μg/mL collagen ([2]; compound 500 μM): 52%; Extent of aggregation as a percentage amplitude, 12 μM TRAP ([2]; compound 500 μM): 3%; Extent of aggregation as a percentage amplitude, 1 μg/mL collagen ([2]; compound 2 mM): 4%; Extent of aggregation as a percentage amplitude, 4 μM ADP ([2]; compound 2 mM): 4%; Extent of aggregation as a percentage amplitude, 5 μg/mL collagen ([2]; compound 2 mM): 5%; Extent of aggregation as a percentage amplitude, 12 μM TRAP ([2]; compound 2 mM): 4%
